For four compounds, IC50 results are on record in US5681708A, “Method for screening compositions” (SmithKline Beecham Corporation, priority 1994, dated 1997).

pIC50: −log10 of the molar value.

In this experiment the target is T1, CD4/Lck protein complex (Homo sapiens, UniProt P01730+P06239).
T1 construct: Detergent extracts of CEM cells were prepared by pelleting cells; endogenous in cells; host or cells: CEM (ATCC CCL 119), acute lymphoblastic CD4-positive human T-cell line; diluted detergent (NP-40) extract
T1 sequence (P06239 2-509 limits assumed, other chains not shown): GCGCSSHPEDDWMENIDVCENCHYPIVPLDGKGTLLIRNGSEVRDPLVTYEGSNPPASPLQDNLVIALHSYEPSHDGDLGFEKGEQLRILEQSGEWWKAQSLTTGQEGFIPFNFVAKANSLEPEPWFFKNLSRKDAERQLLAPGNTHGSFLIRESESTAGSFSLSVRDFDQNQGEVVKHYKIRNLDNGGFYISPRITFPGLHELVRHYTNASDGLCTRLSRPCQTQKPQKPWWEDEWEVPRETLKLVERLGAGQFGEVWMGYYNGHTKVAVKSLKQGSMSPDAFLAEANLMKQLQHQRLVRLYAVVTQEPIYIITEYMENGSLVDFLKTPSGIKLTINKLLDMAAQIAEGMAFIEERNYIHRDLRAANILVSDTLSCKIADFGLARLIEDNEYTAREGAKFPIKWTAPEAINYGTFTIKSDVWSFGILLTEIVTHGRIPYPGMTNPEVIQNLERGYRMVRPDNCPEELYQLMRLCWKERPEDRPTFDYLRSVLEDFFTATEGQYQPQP
The experiment is described as follows: CD4/Lck Dissociation Assay (ELISA-based, CEM cell extracts). Format: biochemical. To be noted: CEM cell detergent extract, 30 min at 30° C., OKT4 capture, C-Lck detection; read-out: IC50, concentration of test compound which dissociated 50% of the target CD4/Lck protein complex relative to controls. The method, then: Acute lymphoblastic CD4-positive human T-cells, from the T-cell line CEM (ATCC CCL 119), were grown in suspension in RPMI-1640 medium supplemented with 10% heat-inactivated fetal calf serum at 37° C. to a cell density of 0.8-1.2×10^6 cells/mi. Detergent extracts of CEM cells were prepared by pelleting cells, washing with Dulbecco's phosphate buffered saline without Ca and Mg (D-PBS) at 4° C. and resuspending the cell pellet in sufficient freshly prepared extraction buffer (50 mM Tris, pH 8.0, 150 mM NaCl, 2 mM EDTA, 50 mM NaF, 3% NONIDET™ P-40, 0.1 mMNa vanadate, 0.1 mM PMSF, 10 ug/ml leupeptin, 10 ug/ml aprotinin, 10 ug/ml TLCK) to yield 1.0×10^8 cells in a volume of 1 ml. The cell pellet was resuspended gently on ice until a homogeneous suspension was obtained and kept on ice for at least 30 min with occasional vortexing. The suspension was then centrifuged at 29,000 xg for 30 min at 4° C.; the clear cell extract supernatant was transferred to a clean tube and placed on ice.
Cell extracts were diluted 16-fold with ice-cold PBS (0.1M phosphate, 0.15M NaCl, ph 7.4) containing 0.5% (w/v) BSA and 0.05% (v/v) TWEEN™ 20 (PBT) to yield 6.25×10^6 cell equivalents/mi. Candidate dissociative agents were diluted to 1 mg/ml with ddH2 O and 10 ul were added to Corning plate wells. A 90 ul volume of diluted cell extract (5.6×10^5 cell equivalents) were added to the Corning plate wells containing an organic solvent to provide a final candidate agent concentration of 0.1 mg/ml. Exemplary organic solvents are DMSO and ethanol. The resulting final concentration of organic solvent was 1%. The plates were incubated for 30 min at 30° C. in a water bath and then transferred to ice. Alternatively, diluted cell extracts can be incubated with candidate agents for 2 to 3 hours at room temperature (22°-25° C.).
ELISA assay plate wells were prepared by coating MaxiSorp™ (Nunc, round-bottom wells) or TITERTEK™ plate wells overnight at 4° C. with 100 ul of 2.5 ug/ml OKT4 CD4 mAb in 0.1M NaHCO3, pH 9.2. TITERTEK™ and Corning ELISA plates were also successfully used. Other CD4 monoclonal antibodies which bind to portions of the V1 domain in the extracellular portion of the CD4 molecule may also be used. All CD4 monoclonal antibodies were either purchased from Ortho or purified from specific hybridomas available from the ATCC. OKT4 hybridoma is available under ATCC CRL 8002.
When ready for use, the coating solution was removed and the wells rinsed 3× with PBS. A blocking step was performed by adding 0.3 ml PBT per well and incubating at least 30 min at 37° C. All PBT was removed and 50 ul of diluted cell extracts were added to the test wells. 50 ul of extraction buffer/PBT (1:15, v/v) were added to the assay blank wells. The plates were sealed and incubated 1 hour at 4° C. […]
(In general: An ELISA detects its analyte on a solid surface through an enzyme-linked reagent.)

Take “5,7-dihydroxy-4'-methoxyisoflavone [Genistein]”: the pIC50 is less than 3.70.
In the case of `CCCCCCCCCCCC1N=C(N)N2CCCC2=C1C(=O)OCCCCNC(=N)N` (stereo not shown) [Crambine A], the pIC50 was greater than 4.00.
On to `N#CC(C#N)=Cc1ccc(O)c(O)c1` [LC-A23, 2-cyano, 3-(3,4-dihydroxyphenyl)acrylonitrile], for which the pIC50 is less than 3.30.
As to `N#C/C(=C\c1ccc(O)c(O)c1)C(N)=O` [LC-A46, trans-2-cyano, 3-(3,4-dihydroxyphenyl)acrylamide], the pIC50 was 3.52.
